Measurements as given in patent publication US20100036088A1, “Selective poly-N-substituted glycine antibiotics” (priority 2008, published 2010).
Read-outs that look alike come from different tables or passages of the source. Blank lines part the entries; values can stand above or below the compound they belong to. Numbered stars: 1 amine (or outer) side, 2 acyl side, 3 side chain; on linkers, the order of the positions; unused ones are H or OH. Square brackets hold non-standard residues; d marks the D form. Peptide text beside a SMILES is read from it. X1 = CC(C)[C@H](C)N(CC(=O)[*:2])[*:1]; Nspe = C[C@H](NCC(=O)O)c1ccccc1; Nphe = O=C(O)CNCc1ccccc1; Nlys = NCCCCNCC(=O)O

How the values were obtained:
[1] = test system: human erythrocytes; assay: Hemolysis assay; format: cell-based
Outline: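 Peptoid serial dilutions in PBS pH 7.4 were combined with an equal volume of 20 vol % washed human red cells (heparinised blood) for 1 h at 37 °C. After dilution and pelleting at 1200 g, released haemoglobin in supernatant was read at A350, scaled between PBS and 0.2 vol % Triton X-100 controls.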

[2] = MTS assay, metabolic inhibition; format: cell-based, mouse
Outline: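 NIH/3T3 cells seeded at 5,000 per well, grown a day, then exposed to serially diluted peptoids in HBSS together with MTS reagent. Absorbance at 490 nm read after 3 hours at 37° C.; mean of six replicates.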

[3] = RP-HPLC elution solvent composition as measure of molecular hydrophobicity; format: physicochemical; settings: Table 5; average of three injections; linear 5%-95% acetonitrile/water (0.1% TFA) over 45 minutes, C18 column; measure of hydrophobicity
Text: (§1) An initial set of 15 ampetoid analogs was synthesized to determine whether peptoids are affected by structural and sequence modifications in a manner consistent with AMP activities. The designs for ampetoids in this library were derived from two antibacterial and selective amphipathic dodecamers, 1 and 2. Peptoid 1 [H-(Nlys-Nspe-Nspe)4—NH2] is composed of 2/3 Nspe, the peptoid analog of phenylalanine, and 1/3 Nlys, the peptoid analog of lysine (see FIG. 1 for the structures of representative peptoid monomers and corresponding N-substituents). Peptoid 2 [H-(Nlys-Nssb-Nspe)4—NH2] contains 1/3 isoleucine-like Nssb monomers in place of Nspe. The variant sequences were designed to effect changes in chirality, length, hydrophobicity, charge, and amphipathicity. All of these compounds were tested for antibacterial activity against representative BSL1 Gram-negative (E. coli JM109) and Gram-positive (B. subtilis BR151) bacterial strains. As an initial measure of selectivity, the lytic activity of the peptoids was determined against human erythrocytes. Table 1 summarizes the sequences synthesized, the solvent composition at RP-HPLC elution as a relative measure of molecular hydrophobicity, and antibacterial and hemolytic activities.
Following synthesis, peptoid oligomers can be cleaved from the resin, simultaneously removing the tert-butoxycarbonyl (Boc) protecting group from Nlys residues, by treatment with 10 ml 2,2,2-trifluoroacetic acid (TFA)/triisopropylsilane/H2O (95:2.5:2.5 by volume) for 30 min. The cleavage mixture is then diluted with 25 ml 50% aqueous acetonitrile, frozen, and lyophilized. Dilution and lyophilization is repeated twice more in order to remove excess TFA. Subsequent to cleavage, peptoids are each purified to >97% homogeneity by preparative scale reversed-phase HPLC using a Waters Prep LC 4000 system, with Waters 2487 dual-wavelength UV detection, and gradient elution (solvent A, 0.1 vol % trifluoroacetic acid (TFA) in water; solvent B, 0.1 vol % TFA in acetonitrile) through a Vydac (Hysperia, Calif.) 214TP101550 C4 peptide/protein column (10-15 μm, 300 Å, 5×25 cm). Following prep HPLC, peptoid purities and crude yields were determined from analytical scale HPLC, performed with a Waters 2695 Separations Module with a Waters 2487 dual-wavelength UV detector and gradient elution (solvent A, 0.1 vol % TFA in water; solvent B, 0.1 vol % TFA in acetonitrile) through a Vydac C4 214TP53 peptide/protein column (5 μm, 300 Å, 3.2×250 mm). The precise gradient employed for HPLC depended on the identity and hydrophobicity of the oligomer in question. All analytical HPLC was performed at 0.5 ml/min flow and 58° C. Preparative HPLC was performed at 50 ml/min flow and room temperature.

[4] = test system: E. coli JM109; format: cell-based
Text: as §1
Antibacterial assays. MICs were determined according to CLSI M7-A6 protocols in a 96-well microtiter plate. In test wells, 50 μL bacterial inoculum (5×10^5 CFU/ml) in Mueller-Hinton broth (MHB) was added to 50 μL peptoid solution in MHB (prepared by 1:2 serial dilutions). Positive controls contained 50 μL inoculum and 50 μL MHB without peptoid. […] MIC values reported were reproducible between three independent experimental replicates, each consisting of two parallel trials. Broad-spectrum antimicrobial susceptibility testing was performed against BSL2 pathogens by Nova Biologicals, Inc. (Conroe, Tex.).

IC50 [2]: 20 µM | HPLC elution (% ACN) [3]: 63.8 % ACN
Structure (SMILES): CC(C)[C@H](C)N(CC(=O)N(CC(=O)N(CCCCN)CC(=O)N(CC(=O)N(CC(=O)N(CCCCN)CC(=O)N(CC(=O)N(CC(=O)N(CCCCN)CC(=O)N(CC(=O)N(CC(N)=O)[C@@H](C)c1ccccc1)[C@@H](C)C(C)C)[C@@H](C)c1ccccc1)[C@@H](C)C(C)C)[C@@H](C)c1ccccc1)[C@@H](C)C(C)C)[C@@H](C)c1ccccc1)C(=O)CNCCCCN [1-Nsdp2,5,8,11, H-(Nlys-Nsdp-Nspe)4-NH2] (H-[Nlys][X1][Nspe][Nlys][X1][Nspe][Nlys][X1][Nspe][Nlys][X1][Nspe]-NH2)
HD10 [1]: 111 µM | HD50 [1]: > 200 µM

MICs ([4]; JM109): < 7 µM | IC50 [2]: 18 µM
Structure (SMILES): C[C@@H](c1ccccc1)N(CC(N)=O)C(=O)CN(C(=O)CN(CCCCN)C(=O)CN(C(=O)CN(C(=O)CN(CCCCN)C(=O)[C@@H]1CCCN1C(=O)CN(C(=O)CN(CCCCN)C(=O)CN(C(=O)CN(C(=O)CNCCCCN)[C@@H](C)c1ccccc1)[C@@H](C)c1ccccc1)[C@@H](C)c1ccccc1)[C@@H](C)c1ccccc1)[C@@H](C)c1ccccc1)[C@@H](C)c1ccccc1 [1-Pro6, H-Nlys-Nspe-Nspe-Nlys-Nspe-L-Pro-(Nlys-Nspe-Nspe)2-NH2] (H-[Nlys][Nspe][Nspe][Nlys][Nspe]P[Nlys][Nspe][Nspe][Nlys][Nspe][Nspe]-NH2)
HD10 [1]: 83 µM | HD50 [1]: > 200 µM | HD10 (10% hemolytic dose) ([1]; red cells of human, 1 h): 63 µM | HD50 (50% hemolytic dose) ([1]; red cells of human, 1 h): > 110 µM

IC50 [2]: 16 µM | HPLC elution (% ACN) [3]: 59.8 % ACN
Structure (SMILES): NCCCCNCC(=O)N(CC(=O)N(CC(=O)N(CCCCN)CC(=O)N(CC(=O)N(CC(=O)N(CCCCN)CC(=O)N(CC(=O)N(CC(=O)N(CCCCN)CC(=O)N(CC(=O)N(CC(N)=O)Cc1ccccc1)Cc1ccccc1)Cc1ccccc1)Cc1ccccc1)Cc1ccccc1)Cc1ccccc1)Cc1ccccc1)Cc1ccccc1 [1achiral, H-(Nlys-Npm-Npm)4-NH2] (H-[Nlys][Nphe][Nphe][Nlys][Nphe][Nphe][Nlys][Nphe][Nphe][Nlys][Nphe][Nphe]-NH2)

Structure (SMILES): C[C@@H](c1ccccc1)N(CC(N)=O)C(=O)CN(C(=O)CN(CCCCN)C(=O)CN(C(=O)CN(C(=O)CN(CCCCN)C(=O)CN(C(=O)CN(C(=O)CN(CCCCN)C(=O)CN(C(=O)CN(C(=O)CNCCCCN)[C@@H](C)c1ccccc1)[C@@H](C)c1ccccc1)[C@@H](C)c1ccccc1)[C@@H](C)c1ccccc1)[C@@H](C)c1ccccc1)[C@@H](C)c1ccccc1)[C@@H](C)c1ccccc1 [compound 1, H-(NLys-Nspe-Nspe)4-NH2] (H-[Nlys][Nspe][Nspe][Nlys][Nspe][Nspe][Nlys][Nspe][Nspe][Nlys][Nspe][Nspe]-NH2)
E. coli MIC ([4]; Table 1, E. coli JM109): 3.5 µM | HD10 (10% hemolytic dose) ([1]; Table 1, human erythrocytes): 21 µM | HD50 (50% hemolytic dose) ([1]; Table 1, human erythrocytes): 100 µM | HD10 ([1]; Table 2): 18 µM | HD50 ([1]; Table 2): 72 µM | HD10 ([1]; Table 3): 21 µM | HD50 ([1]; Table 3): 100 µM | HD10 ([1]; Table 6): 21 µM | HD50 ([1]; Table 6): 100 µM | IC50 ([2]; Table 6, NIH 3T3 mouse fibroblast cells): 5.1 µM
